According to ChEMBL document CHEMBL1147185, “Comparative rates of sialylation by recombinant trans-sialidase and inhibitor properties of synthetic oligosaccharides from Trypanosoma cruzi mucins-containing galactofuranose and galactopyranose” (Bioorg Med Chem, 2007):

assay: Inhibition of Trypanosoma cruzi trans-sialidase after 15 mins

First: O=C(CO)N[C@H]1[C@H](OCc2ccccc2)O[C@@H](CO[C@H]2O[C@@H](CO)[C@@H](O)[C@@H](O[C@H]3O[C@@H](CO)[C@@H](O)[C@H](O)[C@@H]3O)[C@@H]2O)[C@H](O[C@@H]2O[C@@H]([C@H](O)CO)[C@H](O)[C@H]2O)[C@H]1O
Second: CC(=O)N[C@H]1[C@H](OCc2ccccc2)O[C@@H](CO[C@H]2O[C@@H](CO)[C@@H](O)[C@@H](O[C@H]3O[C@@H](CO)[C@@H](O)[C@H](O)[C@@H]3O)[C@@H]2O)[C@H](O[C@@H]2O[C@@H]([C@H](O)CO)[C@H](O)[C@H]2O)[C@H]1O
The IC50 of the first is 1.7-fold higher: 1260 µM for the first, 760 µM for the second.

`O=C(COCc1ccccc1)N[C@H]1[C@@H](OCc2ccccc2)O[C@H](CO[C@@H]2O[C@H](CO)[C@H](O)[C@H](O)[C@H]2O)[C@@H](O)[C@@H]1O` and `O=C(COCc1ccccc1)N[C@H]1[C@@H](OCc2ccccc2)O[C@H](CO[C@@H]2O[C@H](CO)[C@H](O)[C@H](O)[C@H]2O)[C@@H](O[C@H]2O[C@H]([C@@H](O)CO)[C@@H](O)[C@@H]2O)[C@@H]1O` are within 1.5-fold of each other in IC50: 1110 µM for the first, 860 µM for the second.

First: O=C(CO)N[C@H]1[C@@H](OCc2ccccc2)O[C@H](CO[C@@H]2O[C@H](CO)[C@H](O)[C@H](O)[C@H]2O)[C@@H](O)[C@@H]1O
Second: CC(=O)N[C@H]1[C@@H](OCc2ccccc2)O[C@H](CO[C@@H]2O[C@H](CO)[C@H](O)[C@H](O)[C@H]2O)[C@@H](O)[C@@H]1O
The IC50 of the first is 2.3-fold lower: 980 µM for the first, 2220 µM for the second. The first is the more potent here.

First: O=C(CO)N[C@H]1[C@@H](OCc2ccccc2)O[C@H](CO)[C@@H](O[C@@H]2O[C@@H]([C@H](O)CO)[C@H](O)[C@H]2O[C@@H]2O[C@H](CO)[C@H](O)[C@H](O)[C@H]2O)[C@@H]1O
Second: CC(=O)N[C@H]1[C@@H](OCc2ccccc2)O[C@H](CO)[C@@H](O[C@@H]2O[C@@H]([C@H](O)CO)[C@H](O)[C@H]2O[C@@H]2O[C@H](CO)[C@H](O)[C@H](O)[C@H]2O)[C@@H]1O
The IC50 of the first is 2.7-fold lower: 1670 µM for the first, 4430 µM for the second.

`O=C(CO)N[C@H]1[C@@H](OCc2ccccc2)O[C@H](CO[C@@H]2O[C@H](CO)[C@H](O)[C@H](O)[C@H]2O)[C@@H](O[C@H]2O[C@H]([C@@H](O)CO)[C@@H](O)[C@@H]2O)[C@@H]1O` and `CC(=O)N[C@H]1[C@@H](OCc2ccccc2)O[C@H](CO[C@@H]2O[C@H](CO)[C@H](O)[C@H](O)[C@H]2O)[C@@H](O[C@H]2O[C@H]([C@@H](O)CO)[C@@H](O)[C@@H]2O)[C@@H]1O` are within 1.5-fold of each other in IC50: 940 µM for the first, 1330 µM for the second.

`CC(=O)N[C@H]1[C@H](OCc2ccccc2)O[C@@H](CO[C@@H]2O[C@H](CO)[C@H](O)[C@H](O[C@H]3O[C@@H](CO)[C@@H](O)[C@@H](O)[C@@H]3O)[C@H]2O[C@@H]2O[C@H](CO)[C@H](O)[C@H](O)[C@H]2O)[C@H](O[C@@H]2O[C@@H]([C@H](O)CO)[C@H](O)[C@H]2O)[C@H]1O` and `O=C(CO)N[C@H]1[C@H](OCc2ccccc2)O[C@@H](CO[C@@H]2O[C@H](CO)[C@H](O)[C@H](O[C@H]3O[C@@H](CO)[C@@H](O)[C@@H](O)[C@@H]3O)[C@H]2O[C@@H]2O[C@H](CO)[C@H](O)[C@H](O)[C@H]2O)[C@H](O[C@@H]2O[C@@H]([C@H](O)CO)[C@H](O)[C@H]2O)[C@H]1O` are within 1.5-fold of each other in IC50: 850 µM for the first, 610 µM for the second.

Compared with `O=C(COCc1ccccc1)N[C@H]1[C@H](OCc2ccccc2)O[C@@H](CO[C@H]2O[C@@H](CO)[C@@H](O)[C@@H](O[C@H]3O[C@@H](CO)[C@@H](O)[C@H](O)[C@@H]3O)[C@@H]2O)[C@H](O[C@@H]2O[C@@H]([C@H](O)CO)[C@H](O)[C@H]2O)[C@H]1O`, `O=C(COCc1ccccc1)N[C@H]1[C@H](OCc2ccccc2)O[C@@H](CO[C@@H]2O[C@H](CO)[C@H](O)[C@H](O[C@H]3O[C@@H](CO)[C@@H](O)[C@@H](O)[C@@H]3O)[C@H]2O[C@@H]2O[C@H](CO)[C@H](O)[C@H](O)[C@H]2O)[C@H](O[C@@H]2O[C@@H]([C@H](O)CO)[C@H](O)[C@H]2O)[C@H]1O` is 1.6-fold lower in IC50: 1140 µM for the first, 700 µM for the second.

`OC[C@@H]1O[C@H](O[C@@H]2[C@H](O)[C@H](CO)O[C@H](OCc3ccccc3)[C@H]2O[C@@H]2O[C@H](CO)[C@H](O)[C@H](O)[C@H]2O)[C@@H](O)[C@H](O)[C@@H]1O` and `O=C(COCc1ccccc1)N[C@H]1[C@@H](OCc2ccccc2)O[C@H](CO)[C@@H](O[C@@H]2O[C@@H]([C@H](O)CO)[C@H](O)[C@H]2O[C@@H]2O[C@H](CO)[C@H](O)[C@H](O)[C@H]2O)[C@@H]1O` are within 1.5-fold of each other in IC50: 1130 µM for the first, 850 µM for the second.
